# Columns and labels:
# Assay in all cases: relative viability (nuclei count vs DMSO), 5 days (fraction); higher = more cells survive
# [1] = tested on: A-427
# Outline: (§1)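 Dosing by pin tool came one day after lung cancer cell lines were seeded in 1536-well plates, using either one drug or a fixed anchor-drug dose plus five library-drug doses (not always all listed) in √10 steps. After 5 days, nuclei were counted on 4× images. Relative viability is treated-well nuclei count divided by vehicle-well nuclei count, and values are medians of duplicate plates.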
# [2] = tested on: HCC-366
# Outline: as §1
# [3] = tested on: HCC-827
# Outline: as §1
# [4] = tested on: LC-2-ad
# Outline: as §1
# [5] = tested on: NCI-H1355
# Outline: as §1
# [6] = tested on: NCI-H1734
# Outline: as §1
# [7] = tested on: NCI-H1755
# Outline: as §1
# [8] = tested on: NCI-H1792
# Outline: as §1
# [9] = tested on: NCI-H1915
# Outline: as §1
# [10] = tested on: NCI-H1975
# Outline: as §1
# [11] = tested on: NCI-H1993
# Outline: as §1
# [12] = tested on: NCI-H2170
# Outline: as §1
# [13] = tested on: NCI-H2228
# Outline: as §1
# [14] = tested on: NCI-H2347
# Outline: as §1
# [15] = tested on: NCI-H23
# Outline: as §1
# [16] = tested on: NCI-H650
# Outline: as §1
# [17] = tested on: RERF-LC-KJ
# Outline: as §1
# [18] = tested on: SK-LU-1
# Outline: as §1
# [19] = tested on: SK-MES-1
# Outline: as §1
# [20] = tested on: SW 1573
# Outline: as §1
# [21] = tested on: UMC-11
# Outline: as §1
structure (smiles),measurement,setting,value
Nc1cccc2c1CN(C1CCC(=O)NC1=O)C2=O (configuration not stated) [Lenalidomide] + CS(=O)(=O)CCNCc1ccc(-c2ccc3ncnc(Nc4ccc(OCc5cccc(F)c5)c(Cl)c4)c3c2)o1 [Lapatinib] (partner 2 µM),relative viability,[1]; first compound 0.253 µM,0.983
same,relative viability,[1]; first compound 2.53 µM,1.1
same,relative viability,[1]; first compound 8 µM,0.975
same,relative viability,[2]; first compound 0.253 µM,1.03
same,relative viability,[2]; first compound 0.8 µM,1.1
same,relative viability,[2]; first compound 2.53 µM,1.03
same,relative viability,[2]; first compound 8 µM,1.07
same,relative viability,[3]; first compound 0.253 µM,0.189
same,relative viability,[3]; first compound 0.8 µM,0.202
same,relative viability,[3]; first compound 2.53 µM,0.151
same,relative viability,[3]; first compound 8 µM,0.185
same,relative viability,[4]; first compound 0.253 µM,0.941
same,relative viability,[4]; first compound 0.8 µM,0.96
same,relative viability,[4]; first compound 2.53 µM,1.05
same,relative viability,[4]; first compound 8 µM,1
same,relative viability,[5]; first compound 0.253 µM,1
same,relative viability,[5]; first compound 0.8 µM,0.623
same,relative viability,[5]; first compound 2.53 µM,0.963
same,relative viability,[5]; first compound 8 µM,0.606
same,relative viability,[6]; first compound 0.253 µM,1.09
same,relative viability,[6]; first compound 0.8 µM,1.1
same,relative viability,[6]; first compound 2.53 µM,1.18
same,relative viability,[6]; first compound 8 µM,0.969
same,relative viability,[7]; first compound 0.253 µM,1.02
same,relative viability,[7]; first compound 0.8 µM,1
same,relative viability,[7]; first compound 2.53 µM,1.04
same,relative viability,[7]; first compound 8 µM,0.916
same,relative viability,[8]; first compound 0.253 µM,0.946
same,relative viability,[8]; first compound 0.8 µM,0.729
same,relative viability,[8]; first compound 2.53 µM,1.03
same,relative viability,[8]; first compound 8 µM,0.666
same,relative viability,[9]; first compound 0.253 µM,0.979
same,relative viability,[9]; first compound 0.8 µM,0.807
same,relative viability,[9]; first compound 2.53 µM,1.11
same,relative viability,[9]; first compound 8 µM,1.02
same,relative viability,[10]; first compound 0.253 µM,0.897
same,relative viability,[10]; first compound 0.8 µM,0.799
same,relative viability,[10]; first compound 2.53 µM,1.07
same,relative viability,[10]; first compound 8 µM,0.909
same,relative viability,[11]; first compound 0.253 µM,0.894
same,relative viability,[11]; first compound 0.8 µM,0.831
same,relative viability,[11]; first compound 2.53 µM,0.821
same,relative viability,[11]; first compound 8 µM,0.722
same,relative viability,[12]; first compound 0.253 µM,0.26
same,relative viability,[12]; first compound 0.8 µM,0.293
same,relative viability,[12]; first compound 2.53 µM,0.296
same,relative viability,[12]; first compound 8 µM,0.247
same,relative viability,[13]; first compound 0.253 µM,0.997
same,relative viability,[13]; first compound 0.8 µM,0.864
same,relative viability,[13]; first compound 2.53 µM,1.59
same,relative viability,[13]; first compound 8 µM,0.958
same,relative viability,[14]; first compound 0.253 µM,0.928
same,relative viability,[14]; first compound 0.8 µM,0.797
same,relative viability,[14]; first compound 2.53 µM,0.894
same,relative viability,[14]; first compound 8 µM,0.802
same,relative viability,[15]; first compound 0.253 µM,1.05
same,relative viability,[15]; first compound 0.8 µM,1
same,relative viability,[15]; first compound 2.53 µM,1.16
same,relative viability,[15]; first compound 8 µM,0.781
same,relative viability,[16]; first compound 0.253 µM,1.04
same,relative viability,[16]; first compound 2.53 µM,1.01
same,relative viability,[16]; first compound 8 µM,0.804
same,relative viability,[17]; first compound 0.253 µM,0.86
same,relative viability,[17]; first compound 0.8 µM,0.778
same,relative viability,[17]; first compound 2.53 µM,0.904
same,relative viability,[17]; first compound 8 µM,0.757
same,relative viability,[18]; first compound 0.253 µM,0.804
same,relative viability,[18]; first compound 0.8 µM,0.891
same,relative viability,[18]; first compound 2.53 µM,1.11
same,relative viability,[18]; first compound 8 µM,0.889
same,relative viability,[19]; first compound 0.253 µM,0.416
same,relative viability,[19]; first compound 0.8 µM,0.397
same,relative viability,[19]; first compound 2.53 µM,0.536
same,relative viability,[19]; first compound 8 µM,0.391
same,relative viability,[20]; first compound 0.253 µM,1.12
same,relative viability,[20]; first compound 0.8 µM,1.08
same,relative viability,[20]; first compound 2.53 µM,1.12
same,relative viability,[20]; first compound 8 µM,0.992
same,relative viability,[21]; first compound 0.253 µM,1.1
same,relative viability,[21]; first compound 0.8 µM,0.803
same,relative viability,[21]; first compound 2.53 µM,1.04
same,relative viability,[21]; first compound 8 µM,0.791

# Reference: the supplement of paper PMC10307832
